Laboratory results from patent US11981951B2, “Process for the production of methyl methacrylate” (Mitsubishi Chemical UK Limited, priority 2016, dated 2024).
Converted amounts (≈) assume the structure as drawn. Read-outs that look alike come from different tables or passages of the source.

What was measured:
[1] = Solubility limit in the fermentation medium; format: physicochemical; conditions: plasma or biological fluid
Experimental: In embodiments where the C3-C12 methacrylate ester is butyl methacrylate, it is particularly preferred that the titre of butyl methacrylate in the fermentation medium is at least 120, 130, 140, 150 or 200 mg/l. […] At such a concentration, the need for an additional extraction solvent may be negated.

[2] = tested on: S. cerevisiae strain DSM70449; experiment: Growth inhibition (methacrylate ester toxicity) test, S. cerevisiae; format: cell-based; conditions: Saccharomyces cerevisiae, read-out: IC50 range
[3] = Extraction of BMA and MMA from biotransformation medium into dodecane (GC-FID); format: physicochemical; conditions: for average amount extracted into dodecane: across all samples
Experimental: The samples from the BMA/MMA extraction experiments were analysed using gas chromatography under the following operating conditions:
Biomass was harvested from each flask and a separate biotransformation conducted. BMA and MMA levels in dodecane following solvent extraction was quantified by gas chromatography flame ionization detector (GC-FID).
In a 1 I baffled shake flask, a starter culture of 200 ml LB medium containing 200 µg/ml ampicillin was grown for 16.33 hours. The culture was back diluted to OD600 0.2 into 5 1 I baffled shake flasks containing 300 ml fresh LB medium and left to grow at 30° C. and 250 rpm for 23.35 hours. The biomass was then harvested by centrifugation at 5000 rpm and 4° C. for 15 minutes. Each cell pellet was washed with 100 mM sodium phosphate (pH 6.7) and the centrifugation step was repeated. The biomass was resuspended in the required volume of biotransformation medium until an OD600 of 25 was reached.
Biotransformation reactions were conducted in 5×250 ml sealed Schott bottles at 30° C. and 180 rpm for 24 hours.
Samples were taken for GC-FID analysis at 5 hour and 24 hour time points. At each time point 5 ml sample was removed and transferred to a 15 ml falcon tube. Acetonitrile (5 ml) was added in addition to dodecane (1 ml). The mixture was vigorously shaken at >800 rpm for 10 minutes before centrifugation at 3900 rpm and 20° C. for 20 minutes. A 500 μl sample was taken from both the organic and aqueous phases, filtered through a 0.45 μm filter and placed in a crimped lid gas chromatography vial prior to injection.
Quantification of BMA and MMA levels in biotransformation samples was achieved by using external standard calibration […] obtained by preparing volumetric stock solutions of BMA and MMA at known concentrations.

[4] = logPo/w (1-octanol/water partition coefficient); format: physicochemical
Excerpt: In embodiments, the organic solvent has a logPo/w value of greater than or equal to 3.0. More preferably, the organic solvent has a logPo/w value of greater than or equal to 3.6, 3.7, 3.8, 3.9 or 4.0. logPo/w is defined as the logarithm of the partition coefficient of a particular solvent between a standardized 1:1 mixture of 1-octanol and water. The present inventors have shown that, with increasing logPo/w value there is a decrease in the resultant microorganism toxicity. Particularly preferred solvents are higher alkanes of C6 and above which may be linear or branched, cyclic alkanes of C7 and above and aromatic compounds, particularly benzene, substituted with one or more substituents of C3 and above, particularly alkyl substituents which may be linear or branched.

E. coli strain MG1655 = experiment: Growth inhibition (methacrylate ester toxicity) test, E. coli; format: cell-based; conditions: Escherichia coli
[5] = S. cerevisiae DSM70449 in YEPD complex medium, final biomass after 72 hours, concentration that halves MaxOD600
[6] = MG1655, E. coli grown in MSX medium, from final biomass concentrations, read-out: IC50 range
[7] = E. coli MG1655 in LB complex medium, final biomass after 72 hours, concentration that halves MaxOD600, read-out: IC50 range

Structure (SMILES): C=C(C)C(=O)OCCCC [BMA, butyl methacrylate]
- solubility [1]: ~220 µg/mL (≈ 1.55 mM)
- IC50 [2, 5]: 40 to 70 µg/mL (≈ 0.281 to 0.492 mM)
- average amount extracted into dodecane [3]: around 35.6%
- extraction efficiency into dodecane compared to MMA ([3]; biotransformations 2 and 3 (40 mg/l added)): 2.7 ×
- extraction efficiency into dodecane compared to MMA ([3]; biotransformations 4 and 5 (100 mg/l added)): 3.3 ×
- logPo/w ([4]; 1-octanol/water (1:1)): 2.57
- IC50 (E. coli strain MG1655; [6]): 70 to 110 µg/mL (≈ 0.492 to 0.774 mM)
- IC50 (E. coli strain MG1655; [7]): 70 to 110 µg/mL (≈ 0.492 to 0.774 mM)

Structure (SMILES): C=C(C)C(=O)OC [MMA, methyl methacrylate]
- IC50 ([2]; DSM70449, 72 h): 730 to 1450 µg/mL (≈ 7.29 to 14.5 mM)
- average amount extracted into dodecane [3]: ~10.5%
- logPo/w ([4]; 1-octanol/water (1:1)): 0.95
- IC50 (E. coli strain MG1655; MG1655, 72 h, read-out: IC50 range): 3190 to 4250 µg/mL (≈ 31.9 to 42.5 mM)
- IC50 (E. coli strain MG1655; MG1655, read-out: IC50 range): 3190 to 4250 µg/mL (≈ 31.9 to 42.5 mM)

Structure (SMILES): C=C(C)C(=O)OC(C)C [iPMA, isopropyl methacrylate]
- IC50 [2, 5]: 660 to 990 µg/mL (≈ 5.15 to 7.72 mM)
- logPo/w [4]: 1.81
- IC50 (E. coli strain MG1655; [6]): 1180 to 1770 µg/mL (≈ 9.21 to 13.8 mM)
- IC50 (E. coli strain MG1655; [7]): 1180 to 1770 µg/mL (≈ 9.21 to 13.8 mM)
